From patent publication US10047083B2, “Dihydropyrimidinoisoquinolinones and pharmaceutical compositions thereof for the treatment of inflammatory disorders” (GALAPAGOS NV, priority 2011, dated 2018) come the findings set out here.

The target in this test is T1, GPR84 (Homo sapiens, UniProt Q9NQS5).
T1 construct: expressed in transfected cells; membranes used
T1 sequence (Q9NQS5 whole entry): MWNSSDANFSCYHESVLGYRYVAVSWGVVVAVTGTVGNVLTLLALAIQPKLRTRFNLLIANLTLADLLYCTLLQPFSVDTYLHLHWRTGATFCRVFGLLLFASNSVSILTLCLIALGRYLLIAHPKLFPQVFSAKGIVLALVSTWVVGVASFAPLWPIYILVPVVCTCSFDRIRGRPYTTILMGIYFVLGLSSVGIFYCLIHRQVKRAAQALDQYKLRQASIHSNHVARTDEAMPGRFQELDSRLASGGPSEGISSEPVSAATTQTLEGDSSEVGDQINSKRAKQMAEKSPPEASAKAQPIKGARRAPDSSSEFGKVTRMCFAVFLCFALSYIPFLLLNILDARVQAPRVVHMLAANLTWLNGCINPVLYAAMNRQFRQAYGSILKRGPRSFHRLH
The experiment in a line: GTPγS binding assay (GPR84). The test is classed as biochemical. The following applies: membranes from stable cell line over expressing GPR84; 3,3′ di indolylmethane at EC80. As to the method:
1.1. Cell Based Assay: GTp-γS Binding Assay.
The following assay can be used for determination of GPR84 activation.
The assay is performed in a 96 well plate where the following reagents are added. […] In a last step, 30 μL of a mixture consisting of membranes-GTPγS-SpA beads is added [mixture consists of 20 μg/well membranes derived from stable cell line over expressing GPR84 (membranes are pre-incubated with 0.1 μM GDP for 15 min at 4° C.), 0.1 nM [^35S]GTPγS (Perkin Elmer, NEG030) and 0.5 mg/well PVT-WGA SpA beads (Perkin Elmer, RPNQ0001)]. All components are diluted in assay buffer containing 20 mM HEPES pH 7.4; 5 mM MgCl2; 250 mM NaCl; 0.05% BSA; 75 ug/mL saponin. Reactions are incubated for 90 min at room temperature followed by centrifugation at 2000 rpm during 15 min. Plates are read on a Topcount reader (Perkin Elmer) immediately after centrifugation (readout time, 1 min/well).
In general terms: GTPγS resists hydrolysis and so accumulates on activated G proteins.
The IC50 is the concentration that gives 50% inhibition. Read a high IC50 as a need for much substance. `CCOCCOc1ccc2c(c1)CCn1c-2cc(OC[C@@H]2COCCO2)nc1=O` [Compound 130, 2-((S)-1-[1,4]dioxan-2-ylmethoxy)-9-(2-ethoxy-ethoxy)-6,7-dihydro-pyrimido[6,1-a]isoquinolin-4-one] came in with an IC50 of 101 to 500 nM.

Regarding `CCC(O)(CC)CCc1ccc2c(c1)CCn1c-2cc(OC[C@@H]2COCCO2)nc1=O` [Compound 155, 2-((S)-1-[1,4]dioxan-2-ylmethoxy)-9-(3-ethyl-3-hydroxy-pentyl)-6,7-dihydro-pyrimido[6,1-a]isoquinolin-4-one], the IC50 lay in the range of 0.01 to 100 nM.

In the case of `COc1nccc(-c2ccc3c(c2)CCn2c-3cc(OCC3COCCO3)nc2=O)c1Cl` (stereo not drawn) [Compound 64, 9-(3-chloro-2-methoxy-pyridin-4-yl)-2-([1,4]dioxan-2-ylmethoxy)-6,7-dihydro-pyrimido[6,1-a]isoquinolin-4-one], the IC50 lay within 101 to 500 nM.

Compound `O=c1nc(OCC2COCCO2)cc2n1CCc1cc(C#CCn3ccnc3)ccc1-2` (stereo not drawn) [Compound 113, 2-([1,4]Dioxan-2-ylmethoxy)-9-(3-imidazol-1-yl-prop-1-ynyl)-6,7-dihydro-pyrimido[6,1-a]isoquinolin-4-one] returned an IC50 of 101 to 500 nM.

For the compound `Cc1nc(COc2ccc3c(c2)CCn2c-3cc(OCC3COCCO3)nc2=O)no1` (stereo not drawn) [Compound 79, 2-([1,4]dioxan-2-ylmethoxy)-9-(5-methyl-[1,2,4]oxadiazol-3-ylmethoxy)-6,7-dihydro-pyrimido[6,1-a]isoquinolin-4-one], the IC50 lay within 101 to 500 nM.

Take `COc1cccc(-c2ccc3c(c2)CCn2c-3cc(OCC3COCCO3)nc2=O)c1` (stereo not drawn) [Compound 43, 2-([1,4]dioxan-2-ylmethoxy)-9-(3-methoxy-phenyl)-6,7-dihydro-pyrimido[6,1-a]isoquinolin-4-one]: the IC50 fell in the range of 101 to 500 nM.

Regarding `COCCOc1ccc2c(c1)CCn1c-2cc(OC[C@@H]2COCCO2)nc1=O` [Compound 129, 2-((S)-1-[1,4]dioxan-2-ylmethoxy)-9-(2-methoxy-ethoxy)-6,7-dihydro-pyrimido[6,1-a]isoquinolin-4-one], the IC50 lay within 101 to 500 nM.

With `COC(C)CCc1ccc2c(c1)CCn1c-2cc(OC[C@@H]2COCCO2)nc1=O` (stereo partly drawn) [Compound 148, 2-((S)-1-[1,4]dioxan-2-ylmethoxy)-9-(3-methoxy-butyl)-6,7-dihydro-pyrimido[6,1-a]isoquinolin-4-one], the IC50 fell in the range of 0.01 to 100 nM.

Compound `C=CCOc1ccc2c(c1)CCn1c-2cc(OCC2COCCO2)nc1=O` (stereo not drawn) [Compound 1, 9-allyloxy-2-(-1-[1,4]dioxan-2-ylmethoxy)-6,7-dihydro-pyrimido[6,1-a]isoquinolin-4-one] displayed an IC50 of 101 to 500 nM.

`CCOc1ccc(-c2ccc3c(c2)CCn2c-3cc(OCC3COCCO3)nc2=O)cn1` (stereo not drawn) [Compound 61, 2-([1,4]dioxan-2-ylmethoxy)-9-(6-ethoxy-pyridin-3-yl)-6,7-dihydro-pyrimido[6,1-a]isoquinolin-4-one] showed a half-maximal inhibitory concentration (IC50) of 0.01 to 100 nM.

`O=c1nc(OCC2COCCO2)cc2n1CCc1cc(OCc3ncc(-c4ccccc4)o3)ccc1-2` (stereo not drawn) [Compound 75, 2-([1,4]dioxan-2-ylmethoxy)-9-(5-phenyl-oxazol-2-ylmethoxy)-6,7-dihydro-pyrimido[6,1-a]isoquinolin-4-one] returned an IC50 of 0.01 to 100 nM.

In the case of `O=c1nc(OC[C@@H]2COCCO2)cc2n1CCc1cc(NCC3CCOCC3)ccc1-2` [Compound 154, 2-((S)-1-[1,4]dioxan-2-ylmethoxy)-9-[(tetrahydro-pyran-4-ylmethyl)-amino]-6,7-dihydro-pyrimido[6,1-a]isoquinolin-4-one], the IC50 lay in the range of 501 to 1000 nM.

Compound `CCn1cc(-c2ccc3c(c2)CCn2c-3cc(OCC3COCCO3)nc2=O)cn1` (stereo not drawn) [Compound 95, 2-([1,4]dioxan-2-ylmethoxy)-9-(1-ethyl-1H-pyrazol-4-yl)-6,7-dihydro-pyrimido[6,1-a]isoquinolin-4-one] registered an IC50 of 501 to 1000 nM.

`CC(O)C#Cc1ccc2c(c1)CCn1c-2cc(OCC2COCCO2)nc1=O` (stereo not drawn) [Compound 87, 2-([1,4]dioxan-2-ylmethoxy)-9-(3-hydroxy-but-1-ynyl)-6,7-dihydro-pyrimido[6,1-a]isoquinolin-4-one]: the IC50 was in the range of 101 to 500 nM.

In turn, `COCCCc1ccc2c(c1)CCn1c-2cc(OC[C@@H]2COCCO2)nc1=O` [Compound 165, 2-((S)-1-[1,4]dioxan-2-ylmethoxy)-9-(3-methoxy-propyl)-6,7-dihydro-pyrimido[6,1-a]isoquinolin-4-one] had an IC50 of 0.01 to 100 nM.

On to `NC(=O)c1ccc(F)c(-c2ccc3c(c2)CCn2c-3cc(OCC3COCCO3)nc2=O)c1` (stereo not drawn) [Compound 50, 3-[2-([1,4]dioxan-2-ylmethoxy)-4-oxo-6,7-dihydro-4H-pyrimido[6,1-a]isoquinolin-9-yl]-4-fluoro-benzamide], for which the IC50 lay in the range of 101 to 500 nM.

`COC(C#Cc1ccc2c(c1)CCn1c-2cc(OCC2COCCO2)nc1=O)C(C)C` (stereo not drawn) [Compound 110, 2-([1,4]dioxan-2-ylmethoxy)-9-(3-methoxy-4-methyl-pent-1-ynyl)-6,7-dihydro-pyrimido[6,1-a]isoquinolin-4-one] registered an IC50 of 101 to 500 nM.

On to `C=CCOc1ccc2c(c1)CCn1c-2cc(OC[C@@H]2COCCO2)nc1=O` [Compound 118, 9-allyloxy-2-((S)-1-[1,4]dioxan-2-ylmethoxy)-6,7-dihydro-pyrimido[6,1-a]isoquinolin-4-one], for which the IC50 lay in the range of 101 to 500 nM.

Compound `O=c1nc(OC[C@@H]2COCCO2)cc2n1CCc1cc(COC3COC3)ccc1-2` [Compound 124, 2-((S)-1-[1,4]dioxan-2-ylmethoxy)-9-(oxetan-3-yloxymethyl)-6,7-dihydro-pyrimido[6,1-a]isoquinolin-4-one] showed an IC50 of 101 to 500 nM.

The compound `C#Cc1ccc2c(c1)CCn1c-2cc(OCC2COCCO2)nc1=O` (stereo not drawn) [Compound 105, 2-([1,4]dioxan-2-ylmethoxy)-9-ethynyl-6,7-dihydro-pyrimido[6,1-a]isoquinolin-4-one] yielded an IC50 of 101 to 500 nM.

`CC(C)(C)COCc1ccc2c(c1)CCn1c-2cc(OC[C@@H]2COCCO2)nc1=O` [Compound 136, 9-(2,2-dimethyl-propoxymethyl)-2-((S)-1-[1,4]dioxan-2-ylmethoxy)-6,7-dihydro-pyrimido[6,1-a]isoquinolin-4-one] registered an IC50 of 0.01 to 100 nM.

Turning to `N#Cc1ccc(-c2ccc3c(c2)CCn2c-3cc(OCC3COCCO3)nc2=O)cc1` (stereo not drawn) [Compound 6, 4-[2-([1,4]dioxan-2-ylmethoxy)-4-oxo-6,7-dihydro-4H-pyrimido[6,1-a]isoquinolin-9-yl]-benzonitrile], the IC50 lay within 101 to 500 nM.

As to `O=c1nc(OC[C@@H]2COCCO2)cc2n1CCc1cc(OCCF)ccc1-2` [Compound 132, 2-((S)-1-[1,4]dioxan-2-ylmethoxy)-9-(2-fluoro-ethoxy)-6,7-dihydro-pyrimido[6,1-a]isoquinolin-4-one], the IC50 was in the range of 501 to 1000 nM.

Compound `CCOCCOCC#Cc1ccc2c(c1)CCn1c-2cc(OC[C@@H]2COCCO2)nc1=O` [Compound 134, 2-((S)-1-[1,4]dioxan-2-ylmethoxy)-9-[3-(2-ethoxy-ethoxy)-prop-1-ynyl]-6,7-dihydro-pyrimido[6,1-a]isoquinolin-4-one] came in with an IC50 of 101 to 500 nM.

`C=CCOc1ccc2c(c1)CCn1c-2cc(OC[C@H]2COCCO2)nc1=O` [Compound 117, 9-allyloxy-2-((R)-1-[1,4]dioxan-2-ylmethoxy)-6,7-dihydro-pyrimido[6,1-a]isoquinolin-4-one] yielded a half-maximal inhibitory concentration (IC50) of 101 to 500 nM.

The compound `O=c1nc(OC[C@H]2COCCO2)cc2n1CCc1cc(OCCCC3CC3)ccc1-2` [Compound 164, 9-(3-cyclopropyl-propoxy)-2-((R)-1-[1,4]dioxan-2-ylmethoxy)-6,7-dihydropyrimido[6,1-a]isoquinolin-4-one] yielded an IC50 of 0.01 to 100 nM.

For `N#Cc1ccc(-c2ccc3c(c2)CCn2c-3cc(OCC3COCCO3)nc2=O)cn1` (stereo not drawn) [Compound 59, 5-[2-([1,4]dioxan-2-ylmethoxy)-4-oxo-6,7-dihydro-4H-pyrimido[6,1-a]isoquinolin-9-yl]-pyridine-2-carbonitrile], the IC50 was in the range of 501 to 1000 nM.

`O=c1nc(OC[C@@H]2COCCO2)cc2n1CCc1cc(C#CCOCCF)ccc1-2` [Compound 135, 2-((S)-1-[1,4]dioxan-2-ylmethoxy)-9-[3-(2-fluoro-ethoxy)-prop-1-ynyl]-6,7-dihydro-pyrimido[6,1-a]isoquinolin-4-one] returned an IC50 of 101 to 500 nM.

The compound `O=c1nc(OCC2COCCO2)cc2n1CCc1cc(C#Cc3ncccn3)ccc1-2` (stereo not drawn) [Compound 106, 2-([1,4]dioxan-2-ylmethoxy)-9-pyrimidin-2-ylethynyl-6,7-dihydro-pyrimido[6,1-a]isoquinolin-4-one] came in with an IC50 of 501 to 1000 nM.

In turn, `COc1ccc(OC)c(-c2ccc3c(c2)CCn2c-3cc(OCC3COCCO3)nc2=O)c1` (stereo not drawn) [Compound 67, 9-(2,5-dimethoxy-phenyl)-2-([1,4]dioxan-2-ylmethoxy)-6,7-dihydro-pyrimido[6,1-a]isoquinolin-4-one] showed an IC50 of 0.01 to 100 nM.

For `O=c1nc(OCC2COCCO2)cc2n1CCc1cc(-c3ccc(N4CCCC4)nc3)ccc1-2` (stereo not drawn) [Compound 74, 2-([1,4]dioxan-2-ylmethoxy)-9-(6-pyrrolidin-1-yl-pyridin-3-yl)-6,7-dihydro-pyrimido[6,1-a]isoquinolin-4-one], the IC50 is 0.01 to 100 nM.

The compound `O=c1nc(OCC2COCCO2)cc2n1CCc1cc(C#CC3CCCCC3)ccc1-2` (stereo not drawn) [Compound 82, 9-cyclohexylethynyl-2-([1,4]dioxan-2-ylmethoxy)-6,7-dihydro-pyrimido[6,1-a]isoquinolin-4-one] returned an IC50 of 0.01 to 100 nM.

`O=c1nc(OCC2COCCO2)cc2n1CCc1cc(C#CCNCc3ccccc3)ccc1-2` (stereo not drawn) [Compound 93, 9-(3-benzylamino-prop-1-ynyl)-2-([1,4]dioxan-2-ylmethoxy)-6,7-dihydro-pyrimido[6,1-a]isoquinolin-4-one]: the IC50 was 0.01 to 100 nM.
